Source: patent US10829473B2, “Modulators of the cystic fibrosis transmembrane conductance regulator protein and methods of use” (AbbVie Overseas S.Á.R.L., priority 2017, dated 2020)
Like-named read-outs stand apart in the source and are kept apart here. Marks after values point to notes of the source that are not given here.

Molecular target: T1, F508delCFTR (Homo sapiens, UniProt P13569, DEL508-508)
T1 construct: expressed in transfected cells; host or cells: CFBE41o- human lung derived epithelial cells (CFBE41o-F508delCFTR-HRP), doxycycline-inducible
Experiment: Cell Surface Expression-Horse Radish Peroxidase (CSE-HRP) Assay;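 as to EC50 (with co-corrector): co-corrector chromenyl benzoic acid corrector at 2 or 3 µM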;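 as to Maximum % activity (without co-corrector): % of on-plate positive control chromenyl benzoic acid corrector at 2 or 3 µM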
Assay type: cell-based
Settings: for Maximum % activity (with co-corrector) / Emax: maximum at any tested concentration; for Emax: read-out: Maximum % activity (without co-corrector)
Summary of the method: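 Corrector compounds were given as 8-point 3-fold series from 20 or 30 μM, with or without a 2 μM co-corrector, for 18-24 h at 33 °C. Surface HRP was read by luminol luminescence as % of positive control; variable-Hill-slope sigmoidal fitting gave EC50 from triplicate plates.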

[1] = test compound with co-corrector
[2] = test compound with co-corrector, read-out: EC50 (with co-corrector)
[3] = test compound without co-corrector
[4] = test compound without co-corrector, read-out: EC50 (without co-corrector)

T1 sequence (P13569 with tags, fused parts or gaps DEL508-508): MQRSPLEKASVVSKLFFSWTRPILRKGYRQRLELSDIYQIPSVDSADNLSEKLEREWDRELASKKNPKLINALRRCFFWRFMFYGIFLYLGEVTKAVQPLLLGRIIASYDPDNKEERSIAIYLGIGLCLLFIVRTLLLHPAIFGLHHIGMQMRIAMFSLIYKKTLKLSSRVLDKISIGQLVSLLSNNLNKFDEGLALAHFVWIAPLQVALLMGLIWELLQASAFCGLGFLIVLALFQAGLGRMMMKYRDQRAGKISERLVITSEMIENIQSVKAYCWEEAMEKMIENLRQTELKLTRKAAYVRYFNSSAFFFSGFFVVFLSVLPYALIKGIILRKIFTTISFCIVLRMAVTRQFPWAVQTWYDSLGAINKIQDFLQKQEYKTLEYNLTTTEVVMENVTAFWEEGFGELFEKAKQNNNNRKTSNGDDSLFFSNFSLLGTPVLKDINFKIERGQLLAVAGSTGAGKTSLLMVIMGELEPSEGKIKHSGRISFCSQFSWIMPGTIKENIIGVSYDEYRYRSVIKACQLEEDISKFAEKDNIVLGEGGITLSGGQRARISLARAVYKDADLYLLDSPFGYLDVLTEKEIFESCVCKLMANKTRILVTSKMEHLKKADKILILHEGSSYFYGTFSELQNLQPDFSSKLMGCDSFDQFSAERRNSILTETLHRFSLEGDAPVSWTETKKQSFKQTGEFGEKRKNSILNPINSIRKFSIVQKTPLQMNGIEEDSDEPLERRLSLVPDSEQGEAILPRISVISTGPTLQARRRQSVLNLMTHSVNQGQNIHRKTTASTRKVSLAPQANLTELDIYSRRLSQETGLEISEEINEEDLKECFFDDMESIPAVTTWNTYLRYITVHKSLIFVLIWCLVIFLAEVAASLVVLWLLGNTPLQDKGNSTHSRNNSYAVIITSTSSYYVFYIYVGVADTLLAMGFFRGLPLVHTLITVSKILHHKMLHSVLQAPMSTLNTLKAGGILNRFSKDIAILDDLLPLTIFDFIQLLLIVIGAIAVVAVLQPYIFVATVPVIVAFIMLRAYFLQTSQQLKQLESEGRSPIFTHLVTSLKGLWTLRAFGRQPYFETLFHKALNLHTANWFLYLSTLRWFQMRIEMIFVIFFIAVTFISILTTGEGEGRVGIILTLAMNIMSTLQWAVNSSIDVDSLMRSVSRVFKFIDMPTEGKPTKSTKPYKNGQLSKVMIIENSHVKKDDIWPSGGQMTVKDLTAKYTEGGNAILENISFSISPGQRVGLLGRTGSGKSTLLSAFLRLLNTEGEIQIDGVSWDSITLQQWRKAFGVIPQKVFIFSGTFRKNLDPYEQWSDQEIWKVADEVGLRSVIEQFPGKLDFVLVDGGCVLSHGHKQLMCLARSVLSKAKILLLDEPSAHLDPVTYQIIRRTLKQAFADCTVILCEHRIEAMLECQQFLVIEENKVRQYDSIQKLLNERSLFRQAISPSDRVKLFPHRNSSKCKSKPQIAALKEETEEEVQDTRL

SMILES	Maximum % activity (with co-corrector) [1]	EC50 [2] [µM]	Emax [3] [%]	EC50 [4] [µM]	EC50 (with co-corrector) [1]	EC50 (without co-corrector) [3]	EC50 (test compound alone, without co-corrector, read-out: EC50 (without co-corrector)) [µM]	Maximum % activity (with co-corrector) (with co-corrector)	EC50 (with co-corrector, read-out: EC50 (with co-corrector)) [µM]	Emax (without co-corrector) [%]
CCc1cnc(OCCOC)c(C2(C(=O)NS(=O)(=O)c3cccc4nc(C)ccc34)CC2)c1 [GII-56, 1-[5-ethyl-2-(2-methoxyethoxy)pyridin-3-yl]-N-(2-methylquinoline-5-sulfonyl)cyclopropane-1-carboxamide]	+++ (≥350)	3 to 10	> 150	3 to 10						
CCc1cnc(N2CCC(OC)CC2)c(C2(C(=O)NS(=O)(=O)c3cccc4ncccc34)CC2)c1 [GII-57, 1-[5-ethyl-2-(4-methoxypiperidin-1-yl)pyridin-3-yl]-N-(quinoline-5-sulfonyl)cyclopropane-1-carboxamide]	+++ (≥350)	3 to 10	> 150	3 to 10						
CCc1cnc(N2CCC(OC)CC2)c(C2(C(=O)NS(=O)(=O)c3cccc4[nH]ccc34)CC2)c1 [GII-58, 1-[5-ethyl-2-(4-methoxypiperidin-1-yl)pyridin-3-yl]-N-(1H-indole-4-sulfonyl)cyclopropane-1-carboxamide]	+++ (≥350)	3 to 10	> 150	3 to 10						
CCc1cnc(N2CCC(COC)CC2)c(C2(C(=O)NS(=O)(=O)c3cccc4ncccc34)CC2)c1 [GII-59, 1-{5-ethyl-2-[4-(methoxymethyl)piperidin-1-yl]pyridin-3-yl}-N-(quinoline-5-sulfonyl)cyclopropane-1-carboxamide]	+++ (≥350)	3 to 10	> 150	3 to 10						
O=C(NS(=O)(=O)c1cccc2ncccc12)C1(c2ncc(C(F)(F)F)cc2Cl)CC1 [GIII-1]	++ (≥150 and <350)		< 50		++^a	++^a				
O=C(NS(=O)(=O)c1cccc2ncccc12)C1(c2cc(Cl)cnc2C(F)(F)F)CC1 [GIII-2]	+ (<150)	> 10	< 50	> 10						
COc1cc(OC(C)C)c(C2(C(=O)NS(=O)(=O)c3cccc4[nH]ccc34)CC2)cn1 [GIII-3]	+++ (≥350)	3 to 10	> 150	3 to 10						
CC(C)COc1cnc(Cl)c(C2(C(=O)NS(=O)(=O)c3cccc4ncccc34)CC2)c1 [GIII-5]	++ (≥150 and <350)		< 50		++^a	++^a				
CCc1ccncc1C1(C(=O)NS(=O)(=O)c2cccc3ncccc23)CC1 [GIII-6]	+ (<150)	> 10	< 50	> 10						
Cc1cnc(F)cc1C1(C(=O)NS(=O)(=O)c2cccc3c2CCCN3)CC1 [GIII-7]	++ (≥150 and <350)		< 50		++^a	++^a				
COc1ccc(C2(C(=O)NS(=O)(=O)c3cccc4ncccc34)CC2)c(C)n1 [GIII-8]	++ (≥150 and <350)		50 to 150		++^a	++^a				
O=C(NS(=O)(=O)c1cccc2ncccc12)C1(c2cc(C3CC3)cnc2C(F)(F)F)CC1 [GIII-10]	++ (≥150 and <350)		50 to 150		++^a	++^a				
COCCOc1cnc(OC)cc1C1(C(=O)NS(=O)(=O)c2cccc3ncccc23)CC1 [GIII-11]	++ (≥150 and <350)		50 to 150		++^a	++^a				
COc1ncc(C2(C(=O)NS(=O)(=O)c3cccc4c3CCCN4)CC2)c(OC)n1 [GIII-12]	+ (<150)	> 10	< 50	> 10						
CC(C)Oc1cnc(Cl)c(C2(C(=O)NS(=O)(=O)c3cccc4ncccc34)CC2)c1 [GIII-13]	++ (≥150 and <350)		< 50	> 10	++^a					
COc1cc(C2(C(=O)NS(=O)(=O)c3cccc4nc(C)ccc34)CC2)c(OCC(F)F)cn1 [GIII-14]	+++ (≥350)	3 to 10	> 150	3 to 10						
COc1ccc(C2(C(=O)NS(=O)(=O)c3cccc4c3CCCN4)CC2)c(C)n1 [GIII-15]	++ (≥150 and <350)		< 50		++^a	++^a				
Cc1cnc(F)cc1C1(C(=O)NS(=O)(=O)c2cccc3ncccc23)CC1 [GIII-16]	+ (<150)	> 10	< 50	> 10						
COc1cc(C)c(C2(C(=O)NS(=O)(=O)c3cccc4c3CCCN4)CC2)cn1 [GIII-17]	++ (≥150 and <350)		50 to 150		++^a	++^a				

SMILES	Maximum % activity (with co-corrector) [1]	EC50 [2] [µM]	Emax [3] [%]	EC50 [4] [µM]	EC50 (with co-corrector) [1]	EC50 (without co-corrector) [3]	EC50 (test compound alone, without co-corrector, read-out: EC50 (without co-corrector)) [µM]	Maximum % activity (with co-corrector) (with co-corrector)	EC50 (with co-corrector, read-out: EC50 (with co-corrector)) [µM]	Emax (without co-corrector) [%]
COc1cc(C2(C(=O)NS(=O)(=O)c3cccc4ncccc34)CC2)c(OCC(F)F)cn1 [GIII-18]	++ (≥150 and <350)		50 to 150		++^a	++^a				
COc1cc(C2(C(=O)NS(=O)(=O)c3cccc4ncccc34)CC2)c(OC(F)F)cn1 [GIII-19]	++ (≥150 and <350)		50 to 150		++^a	++^a				
Cc1ccc2c(S(=O)(=O)NC(=O)C3(c4cc(C5CC5)cnc4N4CCOCC4)CC3)cccc2n1 [GIII-20]	++ (≥150 and <350)		50 to 150		++^a	++^a				
O=C(NS(=O)(=O)c1cccc2ccccc12)C1(c2ccc(C(F)(F)F)nc2Cl)CC1 [GIII-21]	++ (≥150 and <350)		50 to 150		++^a	++^a				
COc1cc(C2(C(=O)NS(=O)(=O)c3cccc4nc(C)ccc34)CC2)c(OC(F)F)cn1 [GIII-22]	++ (≥150 and <350)		50 to 150		++^a	++^a				
CCc1cnc(N2CCOCC2)c(C2(C(=O)NS(=O)(=O)c3cccc4ncccc34)CC2)c1 [GIII-23]	++ (≥150 and <350)	> 10	50 to 150	> 10						
COc1ncc(C2(C(=O)NS(=O)(=O)c3cccc4ncccc34)CC2)c(OC)n1 [GIII-24]	+ (<150)	> 10	< 50	> 10						
O=C(NS(=O)(=O)c1cccc2ncccc12)C1(c2cc(C3CC3)cnc2N2CCOCC2)CC1 [GIII-25]	++ (≥150 and <350)		50 to 150		++^a	++^a				
Cc1cnc(N2CCN(C)CC2)c(C2(C(=O)NS(=O)(=O)c3cccc4ncccc34)CC2)c1 [GIII-26]	++ (≥150 and <350)	> 10	< 50	> 10						
O=C(NS(=O)(=O)c1cccc2c1CCCN2)C1(c2ccc(C(F)(F)F)nc2Cl)CC1 [GIII-28]	++ (≥150 and <350)	> 10	< 50	> 10						
O=C(NS(=O)(=O)c1cccc2ncccc12)C1(c2ccc(C(F)(F)F)nc2Cl)CC1 [GIII-29]	+ (<150)	> 10	< 50	> 10						
COc1nc(N)ccc1C1(C(=O)NS(=O)(=O)c2cccc3ncccc23)CC1 [GIII-30]	+ (<150)		< 50	> 10	++^a					
CN1CCN(c2ncc(C3CCC3)cc2C2(C(=O)NS(=O)(=O)c3cccc4ncccc34)CC2)CC1 [GIII-31]	+ (<150)	> 10	< 50	> 10						
Cc1ccc2c(S(=O)(=O)NC(=O)C3(c4cc(C5CCC5)cnc4N4CCN(C)CC4)CC3)cccc2n1 [GIII-32]	+ (<150)	> 10	< 50	> 10						
CCc1cnc(N2CCN(C)CC2)c(C2(C(=O)NS(=O)(=O)c3cccc4ncccc34)CC2)c1 [GIII-33]	+ (<150)	> 10	< 50	> 10						
O=C(NS(=O)(=O)c1cccc2ncccc12)C1(c2cc(Cl)cnc2F)CC1 [GIII-34]	+ (<150)	> 10	< 50	> 10						
CC(C)Oc1ncc(CO)cc1C1(C(=O)NS(=O)(=O)c2cccc3ncccc23)CC1 [GIII-35]	+ (<150)	> 10	< 50	> 10						
CN1CCN(c2ncc(C3CC3)cc2C2(C(=O)NS(=O)(=O)c3cccc4[nH]ccc34)CC2)CC1 [GIII-36]	+ (<150)	> 10	< 50	> 10						
COc1cccc(C2(C(=O)NS(=O)(=O)c3cccc4ccccc34)CC2)c1 [II-1]							3 to 10	+++ (≥350)	3 to 10	> 150
